Test results from patent EP4711356A1, “TETRAHYDROCARBAZOLE DERIVATIVE, PHARMACEUTICAL COMPOSITION, AND USE THEREOF” (Nain Biotech (Hangzhou) Co., Ltd., priority 2023, dated 2024).
pIC50: −log10 of the molar value.

Columns and labels:
[1] = Cell-based pharmacodynamic assay (CellTiter-Glo proliferation inhibition), tumor cell line panel; conditions: Homo sapiens; one range stated for all 22 listed ovarian, liver, lung, melanoma, pancreatic, colorectal, renal, prostate, gastric, tongue, leukemia and rhabdomyosarcoma cell lines
Method: Complete media such as RPMI 1640 (Gibco, A1049101), EMEM (ATCC, 30-2003), DMEM (Gibco, C11995500CP), McCoy's 5A (Gibco, 16600082), and F-12K (ATCC, 30-2004) were prepared by supplementing with varying concentrations of FBS (Biological Industries, 04-002-1A) and 1% Penicillin-Streptomycin (Gibco, 15140122) and was thoroughly mixed. Tumor cell lines including HeLa (ATCC, CCL-2; EMEM + 10% FBS), TOV-21G (Cobioer, CBP60292; 1:1 mixture of MCDB 105 and Medium 199 + 15% FBS), OVCAR-3 (ATCC, HTB-161; RPMI 1640 + 20% FBS + 0.01 mg/ml bovine insulin), SK-OV-3 (ATCC, HTB-77; McCoy's 5A + 10% FBS), A2780 (Cobioer, CBP60283; RPMI 1640 + 10% FBS), OC316 (Cobioer, CBP60620; RPMI 1640 + 10% FBS), HuH-7 (Cobioer, CBP60202; DMEM + 10% FBS), SNU-398 (ATCC, CRL-2233; RPMI 1640 + 10% FBS), NCI-H2286 (ATCC, CRL-5938; RPMI 1640 + 5% FBS), NCI-H82 (ATCC, HTB-175; RPMI 1640 + 10% FBS), A549 (ATCC, CCL-185; F-12K + 10% FBS), SK-MEL-3 (ATCC, HTB-69; McCoy's 5A + 15% FBS), PSN-1 (Cobioer, CBP61215; RPMI 1640 + 10% FBS), LoVo (ATCC, CCL-229; F-12K + 10% FBS), DLD-1 (ATCC, CCL-221; RPMI 1640 + 10% FBS), HCT-15 (ATCC, CCL-225; RPMI 1640 + 10% FBS), A498 (ATCC, HTB-44; EMEM + 10% FBS), LNCaP (ATCC, CRL-1740; RPMI 1640 + 10% FBS), SNU-1 (ATCC, CRL-5971; RPMI 1640 + 10% FBS), SCC-9 (Cobioer, CBP60428; DMEM/F12 (1:1) + 10% FBS + 0.5 mM sodium pyruvate + 400 ng/ml hydrocortisone), SU-DHL-5 (ATCC, CRL-2958; RPMI 1640 + 10% FBS), Toledo (ATCC, CRL-2631; RPMI 1640 + 10% FBS), and SJCRH30 (ATCC, CRL-2061; RPMI 1640 + 10% FBS) were thawed. Cells were passaged approximately twice, and those in good growth condition (typically passages 4-6) were selected for experiments. The medium was aspirated, and the cells were washed once with 0.25% trypsin (Invitrogen, 25200-072). The waste liquid was discarded, and 3 mL of fresh trypsin was added to the culture flask for digestion. […] The plates were placed in an Enspire reader (luminescence measurement time: 0.5 s) to record luminescence results. […]

HeLa cells = experiment: Cell-based pharmacodynamic assay (CellTiter-Glo proliferation inhibition), HeLa; conditions: human cervical cancer HeLa cells; 72 hours incubation; CellTiter-Glo luminescence; read-out: IC50 against HeLa cells
How it was run: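 Cells seeded overnight in line-specific media with FBS, then dosed from DMSO stocks (20 mM stock) for 72 h at 37 °C, 5% CO2. Viability by CellTiter-Glo luminescence; inhibition normalised to DMSO and blank wells, IC50 from four-parameter fit.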

HeLa cell line = conditions: compared to the control drug ellipticine; Tunbridge et al., 2013; cited from earlier work

Row | SMILES | pIC50 [1] | pIC50 (HeLa cells) | inhibitory activity against the HeLa cell line (HeLa cell line)
1 | CCOC(=O)c1cccc2[nH]c3c(c12)CCCC3=O [Compound B16] | 5.00 to 6.70 | ≥ 6.70 | 
2 | COc1cc2c(c(N)c1OC)C(=O)/C(=C\c1cc(C)c(O)c(C)c1)C2 [indanocine] |  |  | superior inhibitory activity
3 | Cn1ncc(-c2cccc3[nH]c4c(c23)CCCC4=O)n1 [Compound B67] | 5.00 to 6.70 | ≥ 6.70 | 
4 | O=C1CCCc2c1[nH]c1cccc(N3CC[C@H](CO)C3)c21 [Compound B196] |  | ≥ 6.70 | 
5 | CC(OC(=O)c1cccc2[nH]c3c(c12)CCCC3=O)C(=O)N(C)C (racemic) [Compound B37] |  | ≥ 6.00 | 
6 | CC(OC(=O)c1cccc2[nH]c3c(c12)CCCC3=O)C(F)(F)F (racemic) [Compound B44] |  | ≥ 6.70 | 
7 | Cn1nc2ccccc2c1COC(=O)c1cccc2[nH]c3c(c12)CCCC3=O [Compound B164] |  | ≥ 6.70 | 
8 | COC(=O)c1c(OC)ccc2[nH]c3c(c12)CCCC3=O [Compound B91] |  | ≥ 6.70 | 
9 | O=C1CCCc2c1[nH]c1cccc(C(=O)OCCO)c21 [Compound B31] |  | ≥ 6.70 | 
10 | CCC#CC(C)OC(=O)c1cccc2[nH]c3c(c12)CCCC3=O (racemic) [Compound B110] |  | ≥ 6.70 | 
11 | C#CC1(C(=O)Oc2cccc3[nH]c4c(c23)CCCC4=O)CC1 [Compound B121] |  | ≥ 6.30 | 
12 | O=C1CCCc2c1[nH]c1cccc(C(=O)Oc3cn[nH]c3)c21 [Compound B160] |  | ≥ 6.70 | 
13 | COC(=O)c1cccc2[nH]c3c(c12)CCCC3=O [Compound B10] |  | ≥ 6.70 | 

More lines, main results first:

Row | pIC50 [1] | pIC50 (HeLa cells) | SMILES | inhibitory activity against the HeLa cell line (HeLa cell line)
14 | 5.00 to 6.70 | ≥ 6.70 | CCCCCC(=O)n1c2c(c3c(C(=O)OCC)cccc31)CCCC2=O [Compound C05] | 
15 |  | ≥ 6.70 | CCOCCOCC(=O)n1c2c(c3c(C(=O)OCC)cccc31)CCCC2=O [Compound C44] | 
16 |  | ≥ 6.70 | COC(=O)c1ccc2[nH]c3c(c2c1)CCCC3=NCC(=O)OC(C)(C)C [Compound E34] | 
17 |  | ≥ 6.70 | CCOC(=O)c1cccc2c1c1c(n2C(=O)[C@@H](C)OCc2ccccc2)C(=O)CCC1 [Compound C58] | 
18 |  | ≥ 6.70 | Cc1ccc2[nH]c3c(c2c1)CCC/C3=N\[C@@H](Cc1ccccc1)C(=O)OC(C)(C)C [Compound E38] | 
19 |  | ≥ 6.70 | CCOC(=O)c1cccc2c1c1c(n2C(=O)c2ncoc2C)C(=O)CCC1 [Compound C26] | 
20 |  | ≥ 6.70 | Cc1ccc2[nH]c3c(c2c1)CCCC3=NC1CCN(S(=O)(=O)C(C)C)CC1 [Compound E43] | 
21 |  | ≥ 6.70 | Cc1ccc2[nH]c3c(c2c1)CCCC3=NC1CCN(C)CC1 [Compound E13] | 
22 |  | ≥ 6.70 | Cc1ccc2[nH]c3c(c2c1)CCCC3=NC1CCN(CC(F)(F)F)CC1 [Compound E42] | 
23 |  | ≥ 6.70 | CCOC(=O)c1cccc2c1c1c(n2C(=O)C2CC3(CC(C(=O)O)C3)C2)C(=O)CCC1 (stereo not shown) [Compound C56] | 
24 |  | ≥ 6.70 | Cc1ccc2[nH]c3c(c2c1)CCCC3=NCC1(C)NC(=O)NC1=O (stereo not shown) [Compound E07] | 
25 |  | ≥ 6.70 | COC(=O)c1cccc2[nH]c3c(c12)CCCC3=NCC(C)(C)O [Compound E61] | 
26 |  | ≥ 6.70 | COCCOC1CCC(N=C2CCCc3c2[nH]c2ccc(C)cc32)CC1 (stereo not shown) [Compound E46] | 
27 |  | ≥ 6.30 | Cc1ccc2[nH]c3c(c2c1)C(C)CCC3=NCC(=O)OC(C)(C)C (stereo not shown) [Compound E49] | 
28 |  | ≥ 6.70 | COCCN=C1CCCc2c1[nH]c1ccc(C)cc21 [Compound E45] | 
